A value given as a limit tells only on which side of the number the result lay.

What all share (format): protein assay
Experiment [1] deals with T1, Antigen-presenting glycoprotein CD1d (Mus musculus) (UniProt P11609+P11610). Put plainly: Binding affinity to CD1d in Traj18 knock out C57BL/6 mouse assessed as restriction ratio for reduction in iNKT/CD1d interaction by FACS analysis relative to control.
Experiment [2] concerns the target T1, Antigen-presenting glycoprotein CD1d (Mus musculus). Put plainly: Binding affinity to WTB6 mouse thymus CD1d assessed as restriction ratio for reduction in iNKT/CD1d interaction by FACS analysis relative to control.
The target is the same in experiment [3]. Put plainly: Binding affinity to WTB6 mouse spleen CD1d assessed as restriction ratio for reduction in iNKT/CD1d interaction by FACS analysis relative to control.

Regarding `CCCCCCCCCCCCCC[C@@H](O)[C@@H](O)[C@H](CO[C@H]1O[C@H](CO)[C@H](O)[C@H](O)[C@H]1O)NC(=O)CCCCCCCCOc1ccc(/N=N/c2ccccc2)cc1`, the Ratio is < 0.02% in experiment [1], 0.28% in experiment [2] and 0.4% in experiment [3].
The corresponding values for `CCCCCCCCCCCCCC[C@@H](O)[C@@H](O)[C@H](CO[C@H]1O[C@H](CO)[C@H](O)[C@H](O)[C@H]1O)NC(=O)CCCCCCCCCCOc1ccc(/N=N\c2ccccc2)cc1` are < 0.02%, 0.44% and 0.57%.
For `CCCCCCCCCCCCCC[C@@H](O)[C@@H](O)[C@H](CO[C@H]1O[C@H](CO)[C@H](O)[C@H](O)[C@H]1O)NC(=O)CCCCCCOc1ccc(/N=N/c2ccccc2)cc1`, the Ratio in experiment [1] is < 0.02%; in experiment [2] it was 0.35%; in experiment [3] it was 0.31%.
The corresponding values for `CCCCCCCCCCCCCCCCCCCCCCCCCC(=O)N[C@@H](CO[C@H]1O[C@H](CO)[C@H](O)[C@H](O)[C@H]1O)[C@H](O)[C@H](O)CCCCCCCCCCCCCC` are < 0.02%, 0.45% and 0.66%.
Consider `CCCCCCCCCCCCCC[C@@H](O)[C@@H](O)[C@H](CO[C@H]1O[C@H](CO)[C@H](O)[C@H](O)[C@H]1O)NC(=O)CCCCCCCCOc1ccc(/N=N\c2ccccc2)cc1`, for which the Ratio is < 0.02% in experiment [1], 0.37% in experiment [2] and 0.48% in experiment [3].
Taken in the same sequence, the figures for `CCCCCCCCCCCCCC[C@@H](O)[C@@H](O)[C@H](CO[C@H]1O[C@H](CO)[C@H](O)[C@H](O)[C@H]1O)NC(=O)CCCCOc1ccc(/N=N/c2ccccc2)cc1` were 0.28%, 0.09% and 0.06%.
Taken in the same sequence, the figures for `CCCCCCCCCCCCCC[C@@H](O)[C@@H](O)[C@H](CO[C@H]1O[C@H](CO)[C@H](O)[C@H](O)[C@H]1O)NC(=O)CCCCOc1ccc(/N=N\c2ccccc2)cc1` were 0.57%, 0.05% and 0.05%.
Taken in the same sequence, the figures for `CCCCCCCCCCCCCC[C@@H](O)[C@@H](O)[C@H](CO[C@H]1O[C@H](CO)[C@H](O)[C@H](O)[C@H]1O)NC(=O)CCCCCCOc1ccc(/N=N\c2ccccc2)cc1` were < 0.02%, 0.4% and 0.42%.
On to `CCCCCCCCCCCCCC[C@@H](O)[C@@H](O)[C@H](CO[C@H]1O[C@H](CO)[C@H](O)[C@H](O)[C@H]1O)NC(=O)CCCCCCCCCCOc1ccc(/N=N/c2ccccc2)cc1`, for which the figures for the Ratio in experiment [1], in experiment [2] and in experiment [3] were < 0.02%, 0.36% and 0.5%, respectively.

Values taken from ChEMBL document CHEMBL4627258, “Photo effect on the CD1d-binding ability of azobenzene-attached analogues of α-GalCer” (Bioorg Med Chem Lett, 2020).
